Data published in patent publication US10961215B2, “N-aryl and N-heteroaryl piperidine derivatives as liver X receptor beta agonists, compositions, and their use” (Merck Sharp & Dohme Corp., priority 2016, dated 2021).
pEC50: −log10 of the molar value.

Columns and labels:
[1] = molecular target: T1, GST tagged LXRalpha LBD (ligand binding domain) (Homo sapiens, UniProt Q13133); test: LanthaScreen TR-FRET Liver X Receptor Coactivator Assay, LXR alpha-LBD (co-activator recruitment; IP and % Emax relative to T0901317); assay type: biochemical; settings: for pEC50 / LXR alpha IP (nM): Inflection Point of co-activator recruitment, LXR alpha-LBD, TR-FRET; for Emax: read-out: LXR alpha actiivty at max dose (%)
T1 construct: purchased Invitrogen pv4655
T1 sequence (Q13133 209-447 limits assumed): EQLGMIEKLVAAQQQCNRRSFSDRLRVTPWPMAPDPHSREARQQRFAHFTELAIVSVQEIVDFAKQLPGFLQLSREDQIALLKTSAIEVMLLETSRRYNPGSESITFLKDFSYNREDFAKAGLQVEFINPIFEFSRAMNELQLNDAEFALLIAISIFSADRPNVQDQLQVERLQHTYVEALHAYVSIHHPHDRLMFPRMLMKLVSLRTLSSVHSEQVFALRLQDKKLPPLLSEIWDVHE
Protocol: (§1) Potency (Inflection Point, IP) and efficacy (Emax) are evaluated via compound-induced co-activator recruitment to glutathione-S-transferase (GST) tagged LXRbeta and LXRalpha LBD (ligand binding domain) proteins in relation to reference dual agonist compound T0901317 (N-(2,2,2-Trifluoroethyl)-N-[4-[2,2,2-trifluoro-1-hydroxy-1-(trifluoromethyl)ethyl]phenyl]benzenesulfonamide) using the LanthaScreen™ TR-FRET Liver X Receptor Coactivator Assays according to manufacturer's instructions (Invitrogen catalog number pv4658.pps and pv4655). While running the LanthaScreen™ TR-FRET Liver X Receptor Coactivator Assay, LXR alpha-LBD or LXR beta-LBD was added to ligand test compounds followed by addition of a mixture of a fluorescein-labelled coactivator peptide and terbium-conjugated anti-GST antibody. After an incubation period at room temperature, TR-FRET (time-resolved fluorescence resonance energy transfer) was measured using a filter-based instrument capable of TR-FRET, e.g. PerkinElmer Envision.

[2] = molecular target: T2, GST tagged LXRbeta LBD (ligand binding domain) (Homo sapiens, UniProt P55055); test: LanthaScreen TR-FRET Liver X Receptor Coactivator Assay, LXR beta-LBD (co-activator recruitment; IP and % Emax relative to T0901317); assay type: biochemical; settings: for pEC50: Inflection Point of co-activator recruitment, LXR beta-LBD, TR-FRET; for Emax: read-out: LXR beta actiivty at max dose (%)
T2 construct: purchased Invitrogen pv4658.pps
T2 sequence (P55055 222-460 limits assumed): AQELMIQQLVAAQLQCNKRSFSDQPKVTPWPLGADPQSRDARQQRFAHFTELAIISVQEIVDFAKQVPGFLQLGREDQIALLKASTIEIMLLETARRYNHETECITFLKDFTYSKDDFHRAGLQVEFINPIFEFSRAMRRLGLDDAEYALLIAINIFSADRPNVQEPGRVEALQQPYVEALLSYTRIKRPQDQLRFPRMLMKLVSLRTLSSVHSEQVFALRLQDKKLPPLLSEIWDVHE
Protocol: as §1

[3] = efficacy at max dose in relation to reference T0901317, LXR alpha-LBD
[4] = efficacy at max dose in relation to reference T0901317, LXR beta-LBD

pEC50 [1] | Emax [1, 3] | pEC50 [2] | Emax [2, 4] | LXR alpha IP (nM) [1] | LXR alpha actiivty at max dose (%) [1, 3] | LXR beta actiivty at max dose (%) [2, 4] | SMILES
 |  |  |  | No IP | 6% | 51% | CN(C)C(=O)c1ccc(N2CCC(CCCN(C)C(=O)[C@](O)(c3ccccc3)C(F)(F)F)CC2)nc1Cl [Example 1-26, (R)-2-chloro-N,N-dimethyl-6-(4-(3-(3,3,3-trifluoro-2-hydroxy-N-methyl-2-phenylpropanamido)propyl)piperidin-1-yl)nicotinamide]
 | 3% | 6.22 | 53% | No IP |  |  | COc1cccc([C@](O)(C(=O)N(C)CCCC2CCN(c3ccc(C(=O)N(C)C)c(Cl)n3)CC2)C(F)(F)F)c1 [Example 1-27, (S)-2-chloro-N,N-dimethyl-6-(4-(3-(3,3,3-trifluoro-2-hydroxy-2-(3-methoxyphenyl)-N-methylpropanamido)propyl)piperidin-1-yl)nicotinamide]
 | 0% | 7.17 | 39% | No IP |  |  | CCc1cccc([C@@](O)(C(=O)N(C)CCCC2CCN(c3ccc(C(=O)N(C)C)c(Cl)n3)CC2)C(F)(F)F)c1 [Example 1-28, (R)-2-chloro-6-(4-(3-(2-(3-ethylphenyl)-3,3,3-trifluoro-2-hydroxy-N-methylpropanamido)propyl)piperidin-1-yl)-N,N-dimethylnicotinamide]
 | 8% | 6.40 | 51% | No IP |  |  | CN(C)C(=O)c1ccc(N2CCC(CCCN(C)C(=O)[C@](N)(c3ccccc3)C(F)(F)F)CC2)nc1Cl [Example 1-29, (R)-6-(4-(3-(2-amino-3,3,3-trifluoro-N-methyl-2-phenylpropanamido)propyl)piperidin-1-yl)-2-chloro-N,N-dimethylnicotinamide]
 | 1% | 6.63 | 47% | No IP |  |  | CN(C)C(=O)c1ccc(N2CCC(CCCN(C)C(=O)[C@@](N)(c3ccccc3)C(F)(F)F)CC2)nc1Cl [Example 1-30, (S)-6-(4-(3-(2-amino-3,3,3-trifluoro-N-methyl-2-phenylpropanamido)propyl)piperidin-1-yl)-2-chloro-N,N-dimethylnicotinamide]
 | 0% | 6.79 | 56% | No IP |  |  | CCc1cccc([C@](O)(C(=O)N(C)CCCC2CCN(c3ccc(C(=O)N(C)C)c(Cl)n3)CC2)C(F)(F)F)c1 [Example 1-31, (S)-2-chloro-6-(4-(3-(2-(3-ethylphenyl)-3,3,3-trifluoro-2-hydroxy-N-methylpropanamido)propyl)piperidin-1-yl)-N,N-dimethylnicotinamide]
 | 0% | 7.02 | 48% | No IP |  |  | CC(C)Oc1cccc(C(O)(C(=O)N(C)CCCC2CCN(c3ccc(C(=O)N(C)C)c(Cl)n3)CC2)C(F)(F)F)c1 (stereo not drawn) [Example 1-32, 2-chloro-N,N-dimethyl-6-(4-(3-(3,3,3-trifluoro-2-hydroxy-2-(3-isopropoxyphenyl)-N-methylpropanamido)propyl)piperidin-1-yl)nicotinamide]
 | 0% | 7.77 | 70% | No IP |  |  | CN(C)C(=O)c1ccc(N2CCC(CCCN(C)C(=O)[C@](O)(c3cccc(C4CC4)c3)C(F)(F)F)CC2)nc1Cl [Example 1-33, (R)-2-chloro-6-(4-(3-(2-(3-cyclopropylphenyl)-3,3,3-trifluoro-2-hydroxy-N-methylpropanamido)propyl)piperidin-1-yl)-N,N-dimethylnicotinamide]
 | 16% | 6.58 | 49% | No IP |  |  | CN(C)C(=O)c1ccc(N2CCC(CCCN(C)C(=O)[C@@](O)(c3cccc(C4CC4)c3)C(F)(F)F)CC2)nc1Cl [Example 1-34, (S)-2-chloro-6-(4-(3-(2-(3-cyclopropylphenyl)-3,3,3-trifluoro-2-hdyroxy-N-methylpropanamido)propyl)piperidin-1-yl)-N,N-dimethylnicotinamide]
 | 14% | 6.36 | 46% | No IP |  |  | CN(C)C(=O)c1ccc(N2CCC(CCCN(C)C(=O)[C@@](O)(c3cccc(OC4CC4)c3)C(F)(F)F)CC2)nc1Cl [Example 1-35, (S)-2-chloro-6-(4-(3-(2-(3-cyclopropoxyphenyl)-3,3,3-trifluoro-2-hydroxy-N-methylpropanamido)propyl)piperidin-1-yl)-N,N-dimethylnicotinamide]
 | 0% | 7.11 | 63% | No IP |  |  | CCOc1cccc([C@@](O)(C(=O)N(C)CCCC2CCN(c3ccc(C(=O)N(C)C)c(Cl)n3)CC2)C(F)(F)F)c1 [Example 1-36, (R)-2-chloro-6-(4-(3-(2-(3-ethoxyphenyl)-3,3,3-trifluoro-2-hydroxy-N-methylpropanamido)propyl)piperidin-1-yl)-N,N-dimethylnicotinamide]
 | 0% | 7.46 | 44% | No IP |  |  | CN(C)C(=O)c1ccc(N2CCC(CCCN(C)C(=O)[C@](O)(c3cc(Cl)cc(Cl)c3)C(F)(F)F)CC2)nc1Cl [Example 1-37, (R)-2-chloro-6-(4-(3-(2-(3,5-dichlorophenyl)-3,3,3-trifluoro-2-hydroxy-N-methylpropanamido)propyl)piperidin-1-yl)-N,N-dimethylnicotinamide]
5.72 | 18% | 6.81 | 78% |  |  |  | CN(C)C(=O)c1ccc(N2CCC(CCCN(C)C(=O)[C@@]3(c4ccccc4)CCCO3)CC2)nc1Cl [Example 1-38, (S)-2-chloro-N,N-dimethyl-6-(4-(3-(N-methyl-2-phenyltetrahydrofuran-2-carboxamido)propyl)piperidin-1-yl)nicotinamide]
4.95 | 34% | 6.25 | 53% |  |  |  | CN(C)C(=O)c1ccc(N2CCC(CCCN(C)C(=O)[C@@](O)(c3cccc(OC(F)(F)F)c3)C(F)(F)F)CC2)nc1Cl [Example 1-39, (S)-2-chloro-N,N-dimethyl-6-(4-(3-(3,3,3-trifluoro-2-hydroxy-N-methyl-2-(3-(trifluoromethoxy)phenyl)propanamido)propyl)piperidin-1-yl)nicotinamide]
 | 0% | 7.28 | 63% | No IP |  |  | CN(C)C(=O)c1ccc(N2CCC(CCCN(C)C(=O)[C@](O)(c3cccc(OC(F)(F)F)c3)C(F)(F)F)CC2)nc1Cl [Example 1-40, (R)-2-chloro-N,N-dimethyl-6-(4-(3-(3,3,3-trifluoro-2-hydroxy-N-methyl-2-(3-(trifluoromethoxy)phenyl)propanamido)propyl)piperidin-1-yl)nicotinamide]
 | 0% | 6.98 | 44% | No IP |  |  | CN(C)C(=O)c1ccc(N2CCC(CCCN(C)C(=O)[C@](O)(c3cccc(OC4CC4)c3)C(F)(F)F)CC2)nc1Cl [Example 1-41, (R)-2-chloro-6-(4-(3-(2-(3-cyclopropoxyphenyl)-3,3,3-trifluoro-2-hydroxy-N-methylpropanamido)propyl)piperidin-1-yl)-N,N-dimethylnicotinamide]
 | 11% | 7.04 | 64% | No IP |  |  | CN(C)C(=O)c1ccc(N2CCC(CCCN(C)C(=O)C3(c4ccccc4)CCCC3)CC2)nc1Cl [Example 1-42, 2-chloro-N,N-dimethyl-6-(4-(3-(N-methyl-1-phenylcyclopentanecarboxamido)pro-pyl)piperidin-1-yl)nicotinamide]
 | 11% | 6.96 | 54% | No IP |  |  | CN(C)C(=O)c1ccc(N2CCC(CCCN(C)C(=O)C3(c4ccccc4)CCC3)CC2)nc1Cl [Example 1-43, 2-chloro-N,N-dimethyl-6-(4-(3-(N-methyl-1-phenyl-cyclobutanecarboxamido)propyl)piperidin-1-yl)nicotinamide]

SMILES | pEC50 [1] | Emax [1, 3] | pEC50 [2] | Emax [2, 4] | LXR alpha IP (nM) [1] | LXR alpha actiivty at max dose (%) [1, 3] | LXR beta actiivty at max dose (%) [2, 4]
CN(C)C(=O)c1ccc(N2CCC(CCCN(C)C(=O)[C@@](O)(c3ccccc3)C3CC3)CC2)nc1Cl [Example 1-25, (S)-2-chloro-6-(4-(3-(2-cyclopropyl-2-hydroxy-N-methyl-2-phenylacetamido)propyl)piperidin-1-yl)-N,N-dimethylnicotinamide] | 5.47 | 26% | 6.96 | 71% |  |  | 
